# Legend:
# Format in all cases: binding
# MED15 = target: T1, MED15 (Homo sapiens, UniProt Q96RN5); test: dose-response competition pulldown with MS readout
# T1 sequence (Q96RN5 1-788): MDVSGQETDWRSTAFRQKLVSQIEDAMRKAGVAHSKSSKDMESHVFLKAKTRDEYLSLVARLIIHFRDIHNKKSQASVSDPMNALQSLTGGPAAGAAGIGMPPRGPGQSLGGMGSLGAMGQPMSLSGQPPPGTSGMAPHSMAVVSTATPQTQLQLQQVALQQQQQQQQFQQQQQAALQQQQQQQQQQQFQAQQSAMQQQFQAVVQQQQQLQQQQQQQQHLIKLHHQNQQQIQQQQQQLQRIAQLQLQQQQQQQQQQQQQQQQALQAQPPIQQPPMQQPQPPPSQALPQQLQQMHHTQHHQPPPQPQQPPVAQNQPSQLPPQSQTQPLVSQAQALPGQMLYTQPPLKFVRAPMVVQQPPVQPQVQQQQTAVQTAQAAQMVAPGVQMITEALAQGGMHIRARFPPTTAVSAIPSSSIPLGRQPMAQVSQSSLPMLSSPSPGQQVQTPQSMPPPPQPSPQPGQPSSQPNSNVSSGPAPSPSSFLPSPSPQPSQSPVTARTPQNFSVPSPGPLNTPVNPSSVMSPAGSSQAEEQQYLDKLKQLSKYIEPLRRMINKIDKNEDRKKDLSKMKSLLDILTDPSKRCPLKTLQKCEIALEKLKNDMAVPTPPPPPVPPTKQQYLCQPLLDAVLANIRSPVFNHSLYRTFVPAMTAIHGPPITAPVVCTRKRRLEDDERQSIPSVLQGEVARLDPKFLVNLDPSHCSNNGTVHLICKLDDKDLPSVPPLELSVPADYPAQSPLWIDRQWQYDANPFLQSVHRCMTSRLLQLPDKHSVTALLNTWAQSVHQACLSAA
# GATA1 = GATA1 (Homo sapiens, UniProt P15976); test: dose-response competition pulldown with MS readout
# TCF3 = target: T2, TCF3 (Homo sapiens, UniProt P15923); test: dose-response competition pulldown with MS readout
# T2 sequence (P15923 1-654): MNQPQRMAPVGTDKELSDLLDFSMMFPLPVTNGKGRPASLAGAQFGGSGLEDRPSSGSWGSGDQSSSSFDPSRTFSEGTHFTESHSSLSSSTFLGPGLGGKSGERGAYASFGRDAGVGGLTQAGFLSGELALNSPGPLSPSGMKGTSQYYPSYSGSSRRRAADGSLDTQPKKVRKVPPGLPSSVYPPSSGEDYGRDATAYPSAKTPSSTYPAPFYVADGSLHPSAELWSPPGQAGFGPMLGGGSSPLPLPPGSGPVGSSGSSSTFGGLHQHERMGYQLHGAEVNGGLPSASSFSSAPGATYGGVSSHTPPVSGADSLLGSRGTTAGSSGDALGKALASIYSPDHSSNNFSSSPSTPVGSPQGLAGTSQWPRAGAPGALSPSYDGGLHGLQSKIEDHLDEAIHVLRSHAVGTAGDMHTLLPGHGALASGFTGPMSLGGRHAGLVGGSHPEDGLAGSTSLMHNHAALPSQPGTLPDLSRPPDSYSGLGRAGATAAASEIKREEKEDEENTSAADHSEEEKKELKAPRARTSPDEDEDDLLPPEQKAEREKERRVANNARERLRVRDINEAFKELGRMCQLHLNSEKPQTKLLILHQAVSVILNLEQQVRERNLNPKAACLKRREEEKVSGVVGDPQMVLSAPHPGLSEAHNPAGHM
# GATA2 = target: T3, GATA2 (Homo sapiens, UniProt P23769); test: dose-response competition pulldown with MS readout
# T3 sequence (P23769 1-480): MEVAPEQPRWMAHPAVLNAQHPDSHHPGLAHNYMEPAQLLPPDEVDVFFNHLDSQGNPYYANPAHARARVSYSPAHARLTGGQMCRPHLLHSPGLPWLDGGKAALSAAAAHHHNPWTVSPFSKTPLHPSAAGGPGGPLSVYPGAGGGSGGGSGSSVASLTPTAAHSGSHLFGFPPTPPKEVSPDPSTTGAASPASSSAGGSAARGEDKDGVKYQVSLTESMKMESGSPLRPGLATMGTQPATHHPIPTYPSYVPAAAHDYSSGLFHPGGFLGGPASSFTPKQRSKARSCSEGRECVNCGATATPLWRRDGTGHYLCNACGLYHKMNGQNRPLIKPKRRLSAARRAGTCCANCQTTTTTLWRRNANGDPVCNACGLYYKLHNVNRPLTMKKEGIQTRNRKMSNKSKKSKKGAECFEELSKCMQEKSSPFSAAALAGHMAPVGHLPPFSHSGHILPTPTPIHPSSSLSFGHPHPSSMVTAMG
# UBAP2L = target: T4, UBAP2L (Homo sapiens, UniProt Q14157); test: dose-response competition pulldown with MS readout
# T4 sequence (Q14157 1-1087): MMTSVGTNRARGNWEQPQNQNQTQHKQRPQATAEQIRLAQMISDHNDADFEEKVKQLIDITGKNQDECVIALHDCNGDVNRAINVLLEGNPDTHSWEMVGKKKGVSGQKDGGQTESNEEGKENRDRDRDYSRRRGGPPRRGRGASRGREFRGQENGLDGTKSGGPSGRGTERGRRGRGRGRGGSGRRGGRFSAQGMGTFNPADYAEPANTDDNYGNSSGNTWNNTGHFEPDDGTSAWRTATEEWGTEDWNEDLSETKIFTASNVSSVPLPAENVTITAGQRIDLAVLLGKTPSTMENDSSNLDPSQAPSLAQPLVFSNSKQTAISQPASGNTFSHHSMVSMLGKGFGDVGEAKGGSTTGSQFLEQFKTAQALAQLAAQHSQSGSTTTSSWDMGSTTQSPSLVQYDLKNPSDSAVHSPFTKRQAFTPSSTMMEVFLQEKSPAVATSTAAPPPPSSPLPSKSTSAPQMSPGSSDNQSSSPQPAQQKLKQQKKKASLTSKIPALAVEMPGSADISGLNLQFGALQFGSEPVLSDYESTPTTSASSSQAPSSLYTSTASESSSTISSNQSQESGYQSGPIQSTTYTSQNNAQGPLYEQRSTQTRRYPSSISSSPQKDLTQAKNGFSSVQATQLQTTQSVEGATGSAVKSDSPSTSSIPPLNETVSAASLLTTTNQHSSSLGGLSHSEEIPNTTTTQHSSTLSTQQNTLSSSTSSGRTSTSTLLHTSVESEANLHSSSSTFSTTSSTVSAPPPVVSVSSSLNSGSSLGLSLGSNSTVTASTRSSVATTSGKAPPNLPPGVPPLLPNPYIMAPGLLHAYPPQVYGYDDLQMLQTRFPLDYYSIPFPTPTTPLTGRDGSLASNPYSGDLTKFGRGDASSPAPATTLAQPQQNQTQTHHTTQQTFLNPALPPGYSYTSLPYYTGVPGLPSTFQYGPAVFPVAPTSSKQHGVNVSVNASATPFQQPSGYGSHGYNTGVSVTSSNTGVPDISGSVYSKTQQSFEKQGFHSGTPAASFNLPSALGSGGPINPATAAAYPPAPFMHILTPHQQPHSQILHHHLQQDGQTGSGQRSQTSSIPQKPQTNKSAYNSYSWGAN
# TRIM11 = target: T5, TRIM11 (Homo sapiens, UniProt Q96F44); test: dose-response competition pulldown with MS readout
# T5 sequence (Q96F44 1-468): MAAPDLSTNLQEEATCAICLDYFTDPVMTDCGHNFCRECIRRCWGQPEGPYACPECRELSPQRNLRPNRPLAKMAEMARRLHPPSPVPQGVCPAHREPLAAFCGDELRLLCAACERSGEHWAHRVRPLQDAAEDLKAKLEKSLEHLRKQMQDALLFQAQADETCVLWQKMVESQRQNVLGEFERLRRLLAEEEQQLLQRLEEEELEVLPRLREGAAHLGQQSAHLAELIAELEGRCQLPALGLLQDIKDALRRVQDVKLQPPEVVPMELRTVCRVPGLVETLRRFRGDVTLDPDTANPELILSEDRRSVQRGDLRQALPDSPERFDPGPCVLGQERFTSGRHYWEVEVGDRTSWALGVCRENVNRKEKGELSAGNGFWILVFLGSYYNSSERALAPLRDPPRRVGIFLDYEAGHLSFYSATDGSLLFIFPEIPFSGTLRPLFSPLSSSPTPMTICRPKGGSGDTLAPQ
# OTUD4 = target: T6, OTUD4 (Homo sapiens, UniProt Q01804); test: dose-response competition pulldown with MS readout
# T6 sequence (Q01804 1-1114): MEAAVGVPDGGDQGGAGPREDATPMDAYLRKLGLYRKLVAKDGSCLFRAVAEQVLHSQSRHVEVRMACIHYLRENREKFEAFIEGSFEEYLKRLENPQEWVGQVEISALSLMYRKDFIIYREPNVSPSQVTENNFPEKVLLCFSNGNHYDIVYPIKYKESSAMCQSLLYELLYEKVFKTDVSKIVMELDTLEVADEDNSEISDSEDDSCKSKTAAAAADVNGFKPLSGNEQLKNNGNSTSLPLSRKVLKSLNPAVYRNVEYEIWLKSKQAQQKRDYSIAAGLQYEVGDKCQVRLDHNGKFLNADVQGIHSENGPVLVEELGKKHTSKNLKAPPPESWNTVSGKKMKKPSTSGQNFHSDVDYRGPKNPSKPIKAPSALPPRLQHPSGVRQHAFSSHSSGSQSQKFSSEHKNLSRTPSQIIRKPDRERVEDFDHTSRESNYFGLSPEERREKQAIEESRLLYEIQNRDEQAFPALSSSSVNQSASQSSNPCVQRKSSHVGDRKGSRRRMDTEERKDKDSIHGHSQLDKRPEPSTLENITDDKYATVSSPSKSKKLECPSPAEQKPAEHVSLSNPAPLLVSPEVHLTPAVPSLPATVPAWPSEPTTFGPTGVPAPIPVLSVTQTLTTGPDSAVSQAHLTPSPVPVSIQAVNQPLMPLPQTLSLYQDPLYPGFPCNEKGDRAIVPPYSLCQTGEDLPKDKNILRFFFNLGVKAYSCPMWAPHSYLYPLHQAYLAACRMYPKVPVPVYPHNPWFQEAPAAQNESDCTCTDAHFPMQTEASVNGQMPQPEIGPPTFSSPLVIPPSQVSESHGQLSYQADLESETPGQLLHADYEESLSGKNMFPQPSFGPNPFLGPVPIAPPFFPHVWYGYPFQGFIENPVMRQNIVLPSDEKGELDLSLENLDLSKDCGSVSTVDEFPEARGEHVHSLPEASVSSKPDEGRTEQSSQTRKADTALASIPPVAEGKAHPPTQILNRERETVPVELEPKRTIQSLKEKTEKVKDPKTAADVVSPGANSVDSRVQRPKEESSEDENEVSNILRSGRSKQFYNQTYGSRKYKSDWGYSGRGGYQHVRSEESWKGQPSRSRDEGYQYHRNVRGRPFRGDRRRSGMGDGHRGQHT
# CNOT1 = CNOT1 (Homo sapiens, UniProt A5YKK6); test: dose-response competition pulldown with MS readout; conditions: SW-620 lysate; free FAD vs photo-immobilized FAD beads
# kinases = test: Kinobeads profiling; conditions: latest version of Kinobeads, without immobilized staurosporine
# Sequence of CNOT1 (A5YKK6 whole entry): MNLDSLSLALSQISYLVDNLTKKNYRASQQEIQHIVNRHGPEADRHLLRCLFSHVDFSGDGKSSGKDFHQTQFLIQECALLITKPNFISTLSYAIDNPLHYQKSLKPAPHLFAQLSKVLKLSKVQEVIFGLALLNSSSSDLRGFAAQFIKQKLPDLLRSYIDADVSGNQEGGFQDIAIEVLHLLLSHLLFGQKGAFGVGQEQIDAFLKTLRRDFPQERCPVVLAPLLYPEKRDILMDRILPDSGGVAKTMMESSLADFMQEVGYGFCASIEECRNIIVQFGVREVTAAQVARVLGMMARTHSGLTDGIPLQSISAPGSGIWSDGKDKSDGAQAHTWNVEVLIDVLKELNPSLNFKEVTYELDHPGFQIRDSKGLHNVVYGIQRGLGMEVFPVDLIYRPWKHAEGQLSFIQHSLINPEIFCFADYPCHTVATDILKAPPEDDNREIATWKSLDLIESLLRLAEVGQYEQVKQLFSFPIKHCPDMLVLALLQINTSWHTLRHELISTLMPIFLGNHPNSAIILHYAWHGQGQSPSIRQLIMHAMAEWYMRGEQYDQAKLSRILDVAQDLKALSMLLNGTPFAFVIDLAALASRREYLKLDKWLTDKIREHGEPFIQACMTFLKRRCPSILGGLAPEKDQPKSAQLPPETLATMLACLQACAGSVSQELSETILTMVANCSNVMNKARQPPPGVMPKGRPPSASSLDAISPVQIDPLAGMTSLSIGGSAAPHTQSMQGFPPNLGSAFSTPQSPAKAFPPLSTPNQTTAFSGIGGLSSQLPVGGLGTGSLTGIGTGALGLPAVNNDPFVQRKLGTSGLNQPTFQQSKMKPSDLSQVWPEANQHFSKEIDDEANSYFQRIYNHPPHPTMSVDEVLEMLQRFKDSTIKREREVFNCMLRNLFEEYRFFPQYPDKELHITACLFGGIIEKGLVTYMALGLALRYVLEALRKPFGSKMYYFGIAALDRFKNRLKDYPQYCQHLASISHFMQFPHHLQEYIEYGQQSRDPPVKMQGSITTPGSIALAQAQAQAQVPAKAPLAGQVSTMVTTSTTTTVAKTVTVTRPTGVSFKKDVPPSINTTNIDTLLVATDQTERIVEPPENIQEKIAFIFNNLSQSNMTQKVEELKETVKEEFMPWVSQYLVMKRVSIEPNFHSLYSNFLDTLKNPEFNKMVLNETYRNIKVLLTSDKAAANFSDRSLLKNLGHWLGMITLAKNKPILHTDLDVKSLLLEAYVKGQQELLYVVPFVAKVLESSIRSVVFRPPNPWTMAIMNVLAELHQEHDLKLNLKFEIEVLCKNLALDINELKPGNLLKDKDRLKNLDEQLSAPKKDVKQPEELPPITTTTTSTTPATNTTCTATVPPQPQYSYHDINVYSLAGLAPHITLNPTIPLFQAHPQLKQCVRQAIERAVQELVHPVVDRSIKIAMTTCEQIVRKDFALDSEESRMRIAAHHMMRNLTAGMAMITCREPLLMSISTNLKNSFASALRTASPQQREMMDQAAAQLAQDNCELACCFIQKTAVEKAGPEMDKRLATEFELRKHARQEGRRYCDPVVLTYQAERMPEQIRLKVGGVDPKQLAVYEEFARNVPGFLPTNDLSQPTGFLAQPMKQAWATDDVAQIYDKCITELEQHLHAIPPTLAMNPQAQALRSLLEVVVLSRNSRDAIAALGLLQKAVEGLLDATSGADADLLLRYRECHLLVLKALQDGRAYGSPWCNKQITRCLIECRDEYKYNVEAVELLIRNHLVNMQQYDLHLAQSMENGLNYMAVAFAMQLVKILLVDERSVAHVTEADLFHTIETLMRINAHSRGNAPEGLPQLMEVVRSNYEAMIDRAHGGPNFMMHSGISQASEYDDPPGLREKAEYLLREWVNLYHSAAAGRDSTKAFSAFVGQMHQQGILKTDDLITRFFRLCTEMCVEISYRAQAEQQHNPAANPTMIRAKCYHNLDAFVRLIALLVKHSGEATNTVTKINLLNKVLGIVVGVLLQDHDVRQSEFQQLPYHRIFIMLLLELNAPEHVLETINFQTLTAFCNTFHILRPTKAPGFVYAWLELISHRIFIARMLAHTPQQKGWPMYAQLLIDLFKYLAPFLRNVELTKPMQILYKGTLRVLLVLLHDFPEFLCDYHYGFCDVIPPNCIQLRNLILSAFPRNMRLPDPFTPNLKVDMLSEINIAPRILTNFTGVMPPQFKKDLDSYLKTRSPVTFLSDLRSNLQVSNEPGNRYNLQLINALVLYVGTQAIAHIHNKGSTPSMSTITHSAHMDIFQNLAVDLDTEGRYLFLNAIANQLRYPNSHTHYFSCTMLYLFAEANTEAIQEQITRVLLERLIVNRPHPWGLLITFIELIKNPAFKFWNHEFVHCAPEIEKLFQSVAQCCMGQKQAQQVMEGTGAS
# Sequence of GATA1 (P15976 whole entry): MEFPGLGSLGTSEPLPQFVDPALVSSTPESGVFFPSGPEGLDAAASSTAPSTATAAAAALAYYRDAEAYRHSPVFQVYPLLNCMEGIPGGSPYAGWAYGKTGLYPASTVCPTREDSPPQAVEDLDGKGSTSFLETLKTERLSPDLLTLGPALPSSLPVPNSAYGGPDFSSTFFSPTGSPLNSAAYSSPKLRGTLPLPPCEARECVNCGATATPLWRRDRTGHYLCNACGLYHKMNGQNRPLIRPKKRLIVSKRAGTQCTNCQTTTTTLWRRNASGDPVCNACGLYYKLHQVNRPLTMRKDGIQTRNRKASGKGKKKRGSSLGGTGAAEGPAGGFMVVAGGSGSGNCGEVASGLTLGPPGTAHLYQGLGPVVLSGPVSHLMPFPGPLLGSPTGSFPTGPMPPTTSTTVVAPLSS
SMILES,Kd (MED15) [nM],Kd (GATA1) [nM],Kd (TCF3) [nM],Kd (GATA2) [nM],Kd (UBAP2L) [nM],Kd (TRIM11) [nM],Kd (OTUD4) [nM],CNOT1 bound by the matrix but not competed up to (CNOT1) [µM],number of kinase targets with affinities below 10 μM (kinases)
"Cc1cc2nc3c(=O)[nH]c(=O)nc-3n(C[C@H](O)[C@H](O)[C@H](O)COP(=O)(O)OP(=O)(O)OC[C@H]3O[C@@H](n4cnc5c(N)ncnc54)[C@H](O)[C@@H]3O)c2cc1C [FAD, flavin adenine dinucleotide]",14,20,78,7,36,186,11,> 100,–
CN[C@@H]1C[C@H]2O[C@@](C)([C@@H]1OC)n1c3ccccc3c3c4c(c5c6ccccc6n2c5c31)C(=O)NC4 [Staurosporine],–,–,–,–,–,–,–,–,94

# From PMC9680877 (ACS Chemical Biology, 2022)
